In general, IC50 refers to the midpoint of a concentration-inhibition curve. A low value points to higher potency.

For the first assay, the target named is GCN2 (Homo sapiens (Human), UniProt Q9P2K8). The experiment in a line: TR-FRET biochemical assay for inhibition of GCN2.
Sequence of GCN2 (Q9P2K8 whole entry): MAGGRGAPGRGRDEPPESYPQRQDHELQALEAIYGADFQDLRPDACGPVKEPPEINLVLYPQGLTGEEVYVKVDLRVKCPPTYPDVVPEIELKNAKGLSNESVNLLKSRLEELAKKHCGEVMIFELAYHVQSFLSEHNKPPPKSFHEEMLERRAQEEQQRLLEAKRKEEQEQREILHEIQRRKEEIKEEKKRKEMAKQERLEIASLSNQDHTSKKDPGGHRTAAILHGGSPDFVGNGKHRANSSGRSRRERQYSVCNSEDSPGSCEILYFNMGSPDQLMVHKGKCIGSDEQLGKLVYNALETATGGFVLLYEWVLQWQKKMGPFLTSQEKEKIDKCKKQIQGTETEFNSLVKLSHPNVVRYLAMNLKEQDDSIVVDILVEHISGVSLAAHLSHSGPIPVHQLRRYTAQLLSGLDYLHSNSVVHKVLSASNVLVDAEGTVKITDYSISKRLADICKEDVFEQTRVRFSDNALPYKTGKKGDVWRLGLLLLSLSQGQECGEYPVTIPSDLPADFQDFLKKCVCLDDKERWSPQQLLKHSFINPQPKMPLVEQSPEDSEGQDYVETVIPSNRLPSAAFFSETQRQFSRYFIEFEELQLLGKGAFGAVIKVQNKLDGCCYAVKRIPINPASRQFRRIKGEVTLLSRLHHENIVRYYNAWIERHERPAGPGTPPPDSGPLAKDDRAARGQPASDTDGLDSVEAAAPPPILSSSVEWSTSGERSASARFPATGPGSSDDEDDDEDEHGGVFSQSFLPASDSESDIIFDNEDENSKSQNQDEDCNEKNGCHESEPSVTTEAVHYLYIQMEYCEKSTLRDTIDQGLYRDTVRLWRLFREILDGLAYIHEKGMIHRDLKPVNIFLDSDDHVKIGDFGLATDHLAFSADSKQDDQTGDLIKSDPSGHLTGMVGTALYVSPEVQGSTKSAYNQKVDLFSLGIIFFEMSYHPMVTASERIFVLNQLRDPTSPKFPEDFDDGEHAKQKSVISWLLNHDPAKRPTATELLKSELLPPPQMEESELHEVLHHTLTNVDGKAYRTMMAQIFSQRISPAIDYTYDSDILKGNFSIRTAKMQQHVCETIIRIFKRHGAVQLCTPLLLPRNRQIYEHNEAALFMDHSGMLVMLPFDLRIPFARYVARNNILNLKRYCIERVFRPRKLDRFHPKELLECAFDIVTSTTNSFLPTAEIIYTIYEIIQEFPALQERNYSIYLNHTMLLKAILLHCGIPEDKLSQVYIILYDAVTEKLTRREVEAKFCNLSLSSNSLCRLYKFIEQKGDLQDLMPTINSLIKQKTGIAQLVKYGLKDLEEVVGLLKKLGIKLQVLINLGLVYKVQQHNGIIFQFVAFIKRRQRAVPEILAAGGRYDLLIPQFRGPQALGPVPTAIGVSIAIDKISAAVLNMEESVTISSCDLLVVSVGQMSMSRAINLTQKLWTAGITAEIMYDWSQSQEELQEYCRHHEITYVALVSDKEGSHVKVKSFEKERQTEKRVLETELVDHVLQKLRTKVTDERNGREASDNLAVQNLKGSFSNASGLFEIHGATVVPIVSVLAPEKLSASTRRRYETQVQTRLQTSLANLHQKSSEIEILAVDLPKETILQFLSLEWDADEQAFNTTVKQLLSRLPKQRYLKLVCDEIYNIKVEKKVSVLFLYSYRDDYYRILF
Details: not given
In turn, `COc1ncc(Cl)cc1S(=O)(=O)Nc1ccc(F)c(-c2ccc3c(CO)ncn3c2)c1F` [Compound 94, 5-chloro-N-(2,4-difluoro-3-(1-(hydroxymethyl)imidazo[1,5-a]pyridin-6-yl)phenyl)-2-methoxypyridine-3-sulfonamide] yielded an IC50 of 500 to 1000 nM. The same measure, in the same setting: the result for `CNC(=O)c1ncn2c1CC[C@H](c1c(F)ccc(NS(=O)(=O)c3cc(Cl)cnc3OC)c1F)[C@@H]2C` [Compound 96-1, (5S,6R)-6-[3-(5-chloro-2-methoxypyridine-3-sulfonamido)-2,6-difluorophenyl]-N,5-dimethyl-5H,6H,7H,8H-imidazo[1,5-a]pyridine-1-carboxamide] reads 50 to 500 nM. Still for that read-out and setting: to `CNC(=O)c1ncn2c1CC[C@@H](c1c(F)ccc(NS(=O)(=O)c3cc(Cl)cnc3OC)c1F)[C@H]2C` [Compound 96-2, (5R,6S)-6-[3-(5-chloro-2-methoxypyridine-3-sulfonamido)-2,6-difluorophenyl]-N,5-dimethyl-5H,6H,7H,8H-imidazo[1,5-a]pyridine-1-carboxamide] belongs 500 to 1000 nM; to `COc1ncc(Cl)cc1S(=O)(=O)Nc1ccc(F)c(-c2ccc3c(C(C)O)ncn3c2)c1F` (centres unmarked) [Compound 100, 5-chloro-N-[2,4-difluoro-3-[1-(1-hydroxyethyl)imidazo[1,5-a]pyridin-6-yl]phenyl]-2-methoxypyridine-3-sulfonamide], 500 to 1000 nM. On the same count and under the same terms, to `COc1ncc(Cl)cc1S(=O)(=O)Nc1ccc(F)c(-c2ccc3c(-c4nnc(C(F)(F)F)[nH]4)ncn3c2)c1F` [Compound 102, 5-chloro-N-(2,4-difluoro-3-[1-[5-(trifluoromethyl)-4H-1,2,4-triazol-3-yl]imidazo[1,5-a]pyridin-6-yl]phenyl)-2-methoxypyridine-3-sulfonamide] belongs 50 to 500 nM; to `CNC(=O)c1ncn2cc(-c3c(F)ccc(NS(=O)(=O)c4cc(Cl)cnc4OC)c3C#N)ncc12` [Compound 117, 6-[3-(5-chloro-2-methoxypyridine-3-sulfonamido)-2-cyano-6-fluorophenyl]-N-methylimidazo[1,5-a]pyrazine-1-carboxamide], 50 to 500 nM. In the case of `CNC(=O)c1ncn2cc(-c3c(F)ccc(NS(=O)(=O)c4cc(Cl)cnc4OC)c3F)sc12` [Compound 120, 2-[3-(5-chloro-2-methoxypyridine-3-sulfonamido)-2,6-difluorophenyl]-N-methylimidazo[4,3-b][1,3]thiazole-7-carboxamide], the IC50 fell in the range of 500 to 1000 nM.

Still in this assay, the particulars now being: GCN2 2 nM, 100 nM GFP-eIF2a, 150 μM ATP, TR-FRET.
`CNC(=O)c1ncn2cc(-c3c(F)ccc(NS(=O)(=O)c4cc(Cl)cnc4C)c3F)ncc12` [Compound 93, 6-[3-(5-chloro-2-methylpyridine-3-sulfonamido)-2,6-difluorophenyl]-N-methylimidazo[1,5-a]pyrazine-1-carboxamide]: the IC50 was below 50 nM. As to `Cc1ncc(Cl)cc1S(=O)(=O)Nc1ccc(F)c(-c2ccc3c(-c4ncc[nH]4)ncn3n2)c1F` [Compound 95, 5-chloro-N-[2,4-difluoro-3-[5-(1H-imidazol-2-yl)imidazo[1,5-b]pyridazin-2-yl]phenyl]-2-methylpyridine-3-sulfonamide], the IC50 was below 50 nM. For the molecule `COc1ncc(C#N)cc1S(=O)(=O)Nc1ccc(F)c(-c2ccc3c(-c4ncc[nH]4)ncn3n2)c1F` [Compound 97, 5-cyano-N-[2,4-difluoro-3-[5-(1H-imidazol-2-yl)imidazo[1,5-b]pyridazin-2-yl]phenyl]-2-methoxypyridine-3-sulfonamide], the IC50 was below 50 nM. Molecule `COc1ncc(F)cc1S(=O)(=O)Nc1ccc(F)c(-c2ccc3c(-c4ncc[nH]4)ncn3n2)c1F` [Compound 98, N-[2,4-difluoro-3-[5-(1H-imidazol-2-yl)imidazo[1,5-b]pyridazin-2-yl]phenyl]-5-fluoro-2-methoxypyridine-3-sulfonamide] came in with an IC50 below 50 nM.

In turn, `COc1ncc(Cl)cc1S(=O)(=O)Nc1ccc(F)c(-c2ccc3c(-c4ccno4)ncn3c2)c1F` [Compound 99, 5-chloro-N-(2,4-difluoro-3-(1-(isoxazol-5-yl)imidazo[1,5-a]pyridin-6-yl)phenyl)-2-methoxypyridine-3-sulfonamide] yielded an IC50 below 50 nM.

The molecule `CNC(=O)c1ncn2cc(-c3c(F)ccc(NS(=O)(=O)c4cc(Cl)cnc4OC)c3Cl)ccc12` [Compound 101, 6-(2-chloro-3-((5-chloro-2-methoxypyridine)-3-sulfonamido)-6-fluorophenyl)-N-methylimidazo[1,5-a]pyridine-1-carboxamide] registered an IC50 below 50 nM.

With `COc1ncc(Cl)cc1S(=O)(=O)Nc1ccc(F)c(-c2ccc3c(-c4ncc[nH]4)ncn3c2)c1Cl` [Compound 103, 5-chloro-N-[2-chloro-4-fluoro-3-[1-(1H-imidazol-2-yl)imidazo[1,5-a]pyridin-6-yl]phenyl]-2-methoxypyridine-3-sulfonamide], the IC50 was below 50 nM. In turn, `COc1ncc(Cl)cc1S(=O)(=O)Nc1ccc(F)c(-c2ccc3c(-c4ncc[nH]4)ncn3c2F)c1F` [Compound 104, 5-chloro-N-[2,4-difluoro-3-[5-fluoro-1-(1H-imidazol-2-yl)imidazo[1,5-a]pyridin-6-yl]phenyl]-2-methoxypyridine-3-sulfonamide] displayed an IC50 below 50 nM. `COc1ncc(Cl)cc1S(=O)(=O)Nc1ccc(F)c(-c2ccc3c(-c4ccn[nH]4)ncn3c2F)c1F` [Compound 105, 5-chloro-N-[2,4-difluoro-3-[5-fluoro-1-(2H-pyrazol-3-yl)imidazo[1,5-a]pyridin-6-yl]phenyl]-2-methoxypyridine-3-sulfonamide] registered a concentration for half-maximal inhibition (IC50) below 50 nM. Molecule `CNC(=O)c1ncn2cc(-c3c(F)ccc(NS(=O)(=O)c4cc(Cl)cnc4OC)c3Cl)ncc12` [Compound 106, 6-[2-chloro-3-(5-chloro-2-methoxypyridine-3-sulfonamido)-6-fluorophenyl]-N-methylimidazo[1,5-a]pyrazine-1-carboxamide] yielded an IC50 below 50 nM. Still for that read-out and setting: the result for `COc1ncc(F)cc1S(=O)(=O)Nc1ccc(F)c(-c2ccc3c(-c4ncc[nH]4)ncn3c2F)c1F` [Compound 107, N-[2,4-difluoro-3-[5-fluoro-1-(1H-imidazol-2-yl)imidazo[1,5-a]pyridin-6-yl]phenyl]-5-fluoro-2-methoxypyridine-3-sulfonamide] reads below 50 nM; that for `Cc1ncc(F)cc1S(=O)(=O)Nc1ccc(F)c(-c2ccc3c(-c4ncc[nH]4)ncn3c2F)c1F` [Compound 108, N-[2,4-difluoro-3-[5-fluoro-1-(1H-imidazol-2-yl)imidazo[1,5-a]pyridin-6-yl]phenyl]-5-fluoro-2-methylpyridine-3-sulfonamide], below 50 nM; that for `Cc1ncc(Cl)cc1S(=O)(=O)Nc1ccc(F)c(-c2ccc3c(-c4ncc[nH]4)ncn3c2F)c1F` [Compound 109, 5-chloro-N-[2,4-difluoro-3-[5-fluoro-1-(1H-imidazol-2-yl)imidazo[1,5-a]pyridine-6-yl]phenyl]-2-methylpyridine-3-sulfonamide], below 50 nM. The molecule `COc1ncc(Cl)cc1S(=O)(=O)Nc1ccc(F)c(-c2cn3cnc(-c4nc5ccccc5[nH]4)c3cn2)c1F` [Compound 110, N-[3-[1-(1H-1,3-benzodiazol-2-yl)imidazo[1,5-a]pyrazin-6-yl]-2,4-difluorophenyl]-5-chloro-2-methoxypyridine-3-sulfonamide] showed an IC50 below 50 nM. The same measure, in the same setting: to `COc1ncc(F)cc1S(=O)(=O)Nc1ccc(F)c(-c2cn3cnc(-c4nc5ccccc5[nH]4)c3cn2)c1F` [Compound 111, N-[3-[1-(1H-1,3-benzodiazol-2-yl)imidazo[1,5-a]pyrazin-6-yl]-2,4-difluorophenyl]-5-fluoro-2-methoxypyridine-3-sulfonamide] belongs below 50 nM. On the same count and under the same terms, to `COc1ncc(C#N)cc1S(=O)(=O)Nc1ccc(F)c(-c2cn3cnc(-c4nc5ccccc5[nH]4)c3cn2)c1F` [Compound 112, N-[3-[1-(1H-1,3-benzodiazol-2-yl)imidazo[1,5-a]pyrazin-6-yl]-2,4-difluorophenyl]-5-cyano-2-methoxypyridine-3-sulfonamide] belongs below 50 nM. The same measure, in the same setting: the result for `Cc1ncc(Cl)cc1S(=O)(=O)Nc1ccc(F)c(-c2cn3cnc(-c4nc5ccccc5[nH]4)c3cn2)c1F` [Compound 113, N-[3-[1-(1H-1,3-benzodiazol-2-yl)imidazo[1,5-a]pyrazin-6-yl]-2,4-difluorophenyl]-5-chloro-2-methylpyridine-3-sulfonamide] reads below 50 nM; that for `Cc1ncc(F)cc1S(=O)(=O)Nc1ccc(F)c(-c2cn3cnc(-c4nc5ccccc5[nH]4)c3cn2)c1F` [Compound 114, N-[3-[1-(1H-1,3-benzodiazol-2-yl)imidazo[1,5-a]pyrazin-6-yl]-2,4-difluorophenyl]-5-fluoro-2-methylpyridine-3-sulfonamide], below 50 nM. The molecule `COc1ncc(F)cc1S(=O)(=O)Nc1ccc(F)c(-c2ccc3c(-c4nc(Cl)c[nH]4)ncn3c2F)c1F` [Compound 115, N-[3-[1-(4-chloro-1H-imidazol-2-yl)-5-fluoroimidazo[1,5-a]pyridin-6-yl]-2,4-difluorophenyl]-5-fluoro-2-methoxypyridine-3-sulfonamide] had an IC50 below 50 nM. The same measure, in the same setting: the result for `COc1ncc(Cl)cc1S(=O)(=O)Nc1ccc(F)c(-c2ccc3c(-c4nc(Cl)c[nH]4)ncn3c2F)c1F` [Compound 116, 5-chloro-N-[3-[1-(4-chloro-1H-imidazol-2-yl)-5-fluoroimidazo[1,5-a]pyridin-6-yl]-2,4-difluorophenyl]-2-methoxypyridine-3-sulfonamide] reads below 50 nM. On the same count and under the same terms, to `COc1ncc(F)cc1S(=O)(=O)Nc1ccc(F)c(-c2ccc3c(-c4ccno4)ncn3c2)c1F` [Compound 118, N-[2,4-difluoro-3-[1-(1,2-oxazol-5-yl)imidazo[1,5-a]pyridin-6-yl]phenyl]-5-fluoro-2-methoxypyridine-3-sulfonamide] belongs below 50 nM. Take `COc1ncc(C#N)cc1S(=O)(=O)Nc1ccc(F)c(-c2ccc3c(-c4ccno4)ncn3c2)c1F` [Compound 119, 5-cyano-N-[2,4-difluoro-3-[1-(1,2-oxazol-5-yl)imidazo[1,5-a]pyridin-6-yl]phenyl]-2-methoxypyridine-3-sulfonamide]: the IC50 was below 50 nM.

Values taken from patent publication US20240083897A1, “GCN2 MODULATING COMPOUNDS AND USES THEREOF” (HiberCell, Inc., priority 2021, published 2024).
